ChEMBL document CHEMBL4699507, “Rhopaladins' analogue (E)-2-aroyl-4-(4-fluorobenzylidene)-5-oxopyrrolidines inhibit proliferation, promote apoptosis and down-regulation of E6/E7 mRNA in cervical cancer” (2020)

What was measured:
Ca-Ski [1] = experiment: Induction of apoptosis in human CaSki cells after 48 hrs by Annexin V-FITC/PI double staining based flow cytometric analysis; format: functional, cell-based; details: dose microM 12.5-50, time 48.0 hrs
Ca-Ski [2] = experiment: Induction of apoptosis in human CaSki cells assessed as viable cells at 12.5 uM after 48 hrs by Annexin V-FITC/PI double staining based flow cytometric analysis (reference value: 93%); format: functional; details: read-out: Activity
Ca-Ski [3] = experiment: Antiproliferative activity against human CaSki cells assessed as inhibition of cell viability incubated for 48 hrs by MTT assay; format: functional, cell-based; details: dose microM 3.125-100, time 48.0 hrs
Ca-Ski [4] = experiment: Antiproliferative activity against human CaSki cells assessed as reduction in cell viability at 3.125-100 uM by MTT assay; format: functional, cell-based; details: dose microM 3.125-100, time hrs 24-72, TDE = time-dependent effect
Ca-Ski [5] = experiment: Induction of apoptosis in human CaSki cells assessed as early apoptotic cells at 12.5 uM after 48 hrs by Annexin V-FITC/PI double staining based flow cytometric analysis (Rvb =0.697%); format: functional
Ca-Ski [6] = experiment: Induction of apoptosis in human CaSki cells assessed as late apoptotic cells at 12.5 uM after 48 hrs by Annexin V-FITC/PI double staining based flow cytometric analysis (Rvb =5.59%); format: functional
Ca-Ski [7] = experiment: Induction of apoptosis in human CaSki cells assessed as necrotic cells at 12.5 uM after 48 hrs by Annexin V-FITC/PI double staining based flow cytometric analysis (Rvb =0.075%); format: functional
Ca-Ski [8] = experiment: Induction of apoptosis in human CaSki cells assessed as viable cells at 25 uM after 48 hrs by Annexin V-FITC/PI double staining based flow cytometric analysis (reference value: 93%); format: functional; details: read-out: Activity
Ca-Ski [9] = experiment: Induction of apoptosis in human CaSki cells assessed as early apoptotic cells at 25 uM after 48 hrs by Annexin V-FITC/PI double staining based flow cytometric analysis (Rvb =0.697%); format: functional
Ca-Ski [10] = experiment: Induction of apoptosis in human CaSki cells assessed as late apoptotic cells at 25 uM after 48 hrs by Annexin V-FITC/PI double staining based flow cytometric analysis (Rvb =5.59%); format: functional
Ca-Ski [11] = experiment: Induction of apoptosis in human CaSki cells assessed as necrotic cells at 25 uM after 48 hrs by Annexin V-FITC/PI double staining based flow cytometric analysis (Rvb =0.075%); format: functional
Ca-Ski [12] = experiment: Induction of apoptosis in human CaSki cells assessed as viable cells at 50 uM after 48 hrs by Annexin V-FITC/PI double staining based flow cytometric analysis (reference value: 93%); format: functional; details: read-out: Activity
Ca-Ski [13] = experiment: Induction of apoptosis in human CaSki cells assessed as early apoptotic cells at 50 uM after 48 hrs by Annexin V-FITC/PI double staining based flow cytometric analysis (Rvb =0.697%); format: functional
Ca-Ski [14] = experiment: Induction of apoptosis in human CaSki cells assessed as late apoptotic cells at 50 uM after 48 hrs by Annexin V-FITC/PI double staining based flow cytometric analysis (Rvb =5.59%); format: functional
Ca-Ski [15] = experiment: Induction of apoptosis in human CaSki cells assessed as necrotic cells at 50 uM after 48 hrs by Annexin V-FITC/PI double staining based flow cytometric analysis (Rvb =0.075%); format: functional
[16] = Inhibition of Human papillomavirus type 16 derived E6 gene expression in human CaSki cells assessed as fold change in expression at 12.5 uM measured after 48 hrs by RT-qPCR analysis relative to control; format: functional, Ca-Ski
[17] = Inhibition of Human papillomavirus type 16 derived E6 gene expression in human CaSki cells assessed as fold change in expression at 25 uM measured after 48 hrs by RT-qPCR analysis relative to control; format: functional, Ca-Ski
[18] = Inhibition of Human papillomavirus type 16 derived E6 gene expression in human CaSki cells assessed as fold change in expression at 50 uM measured after 48 hrs by RT-qPCR analysis relative to control; format: functional, Ca-Ski
[19] = Inhibition of Human papillomavirus type 16 derived E7 gene expression in human CaSki cells assessed as fold change in expression at 12.5 uM measured after 48 hrs by RT-qPCR analysis relative to control; format: functional, Ca-Ski
[20] = Inhibition of Human papillomavirus type 16 derived E7 gene expression in human CaSki cells assessed as fold change in expression at 25 uM measured after 48 hrs by RT-qPCR analysis relative to control; format: functional, Ca-Ski
[21] = Inhibition of Human papillomavirus type 16 derived E7 gene expression in human CaSki cells assessed as fold change in expression at 50 uM measured after 48 hrs by RT-qPCR analysis relative to control; format: functional, Ca-Ski
Ca-Ski [22] = experiment: Induction of apoptosis in human CaSki cells at 12.5 uM after 48 hrs by Annexin V-FITC/PI double staining based flow cytometric analysis (reference value: 6.25 +/-0.5%); format: functional
Ca-Ski [23] = experiment: Induction of apoptosis in human CaSki cells at 25 uM after 48 hrs by Annexin V-FITC/PI double staining based flow cytometric analysis (reference value: 6.25 +/-0.5%); format: functional
Ca-Ski [24] = experiment: Induction of apoptosis in human CaSki cells at 50 uM after 48 hrs by Annexin V-FITC/PI double staining based flow cytometric analysis (reference value: 6.25 +/-0.5%); format: functional

Question: With `CC(C)N1C(=O)/C(=C/c2ccc(F)cc2)CC1(C(=O)NC(C)(C)C)C(=O)c1ccc(Cl)cc1` (stereo unspecified) as the molecule, how does the Activity (Ca-Ski [1]) read?
Answer: Dose-dependent effect

Question: What about the viability at 12.5 µM (Ca-Ski [2]) of the same molecule?
Answer: 85.4%

Question: What about the Activity (Ca-Ski [3]) of the same molecule?
Answer: Dose-dependent effect

Question: And the Activity (Ca-Ski [4])?
Answer: Tde

Question: And the Activity (Ca-Ski [5])?
Answer: 8.2%

Question: And the Activity (Ca-Ski [6])?
Answer: 6.24%

Question: And the Activity (Ca-Ski [7])?
Answer: 0.18%

Question: And the viability at 25 µM (Ca-Ski [8])?
Answer: 75.3%

Question: What about the Activity (Ca-Ski [9]) of the same molecule?
Answer: 14.9%

Question: And the Activity (Ca-Ski [10])?
Answer: 9.65%

Question: What about the Activity (Ca-Ski [11]) of the same molecule?
Answer: 0.105%

Question: What about the viability at 50 µM (Ca-Ski [12]) of the same molecule?
Answer: 58.5%

Question: What about the Activity (Ca-Ski [13]) of the same molecule?
Answer: 26.2%

Question: And the Activity (Ca-Ski [14])?
Answer: 15%

Question: And the Activity (Ca-Ski [15])?
Answer: 0.217%

Question: What about the “fold change (FC)” value [16] of the same molecule?
Answer: 0.653

Question: What about the “fold change (FC)” value [17] of the same molecule?
Answer: 0.547

Question: What about the “fold change (FC)” value [18] of the same molecule?
Answer: 0.354

Question: What about the “fold change (FC)” value [19] of the same molecule?
Answer: 0.483

Question: What about the “fold change (FC)” value [20] of the same molecule?
Answer: 0.465

Question: And the “fold change (FC)” value [21]?
Answer: 0.432

Question: What about the Activity (Ca-Ski [22]) of the same molecule?
Answer: 15.6%

Question: What about the Activity (Ca-Ski [23]) of the same molecule?
Answer: 23.56%

Question: And the Activity (Ca-Ski [24])?
Answer: 41.2%

Question: With `CCCCN1C(=O)/C(=C/c2ccc(F)cc2)CC1(C(=O)NC(C)(C)C)C(=O)c1ccc(Cl)cc1` (stereo unspecified) as the molecule, how does the Activity (Ca-Ski [3]) read?
Answer: Dose-dependent effect

Question: With `CC(C)N1C(=O)/C(=C/c2ccc(F)cc2)CC1(C(=O)NC(C)(C)C)C(=O)c1ccc(Br)cc1` (stereo unspecified) as the molecule, how does the Activity (Ca-Ski [3]) read?
Answer: Dose-dependent effect
